Laboratory results published in patent US12617777B2, “GPR84 antagonists and uses thereof” (Liminal BioSciences Limited, priority 2021, dated 2026).

Biological target: T1, human GPR84 receptor (Homo sapiens, UniProt Q9NQS5)
T1 construct: host or cells: HEK293, transient transfection
Experiment: Gαi biosensor BRET assay in HEK293 cells (antagonism of ZQ-16)
Assay type: cell-based
Details: for inhibition at 10 µM: HEK293, single concentration 10 μM (designated F); for IC50: HEK293 cells, antagonism of 200 nmol/L ZQ-16; for inhibition at 2 µM: HEK293, single concentration 2 μM (designated A); for inhibition at 25 µM: HEK293, single concentration 25 μM (designated I)
Excerpt: Background—The following assays can be used for determination of GPR84 activation in living HEK293 cells. The Gai BRET biosensor (Gagnon et al., 2018; Gales et al., 2006. Nat StructMol Biol. 13, 778-86; Saulieres et al., 2012. Nat Chem Biol. 8, 622-30) allows to directly monitor GPR84-mediated activation of Gai. The Gai biosensor consists of a Rluc8-tagged Gαi2 subunit, a GFP10-tagged Gγ2 subunit, and an untagged Gβ1. Agonist stimulation and GPR84 activation triggers a physical separation between the RLuc8-Gαi donor and the GFP10-Gγ2 acceptor, resulting in a decrease in BRET signal whose amplitude is correlated to ligand efficacy (Gales et al., 2006). Moreover, signaling functions of GPCRs are tightly regulated by endocytosis, the targeting of receptors to endosomes and their sorting to lysosomes or recycling to the plasma membrane. The early endosomes (EEs) trafficking assay (Namkung et al., 2016. Nat Commun. 7, 12178) uses Rluc8-tagged GPR84 and Renilla GFP (rGFP) attached to the FYVE domain from human endofin/zinc finger FYVE domain-containing protein 16, which binds phosphatidylinositol 3-phosphate in EEs. Agonist stimulation of GPR84-Rluc8 leads to trafficking of the receptor to EEs, and ensuing increase of the donor concentration relative to the rGFP-FYVE acceptor anchored in the same cellular compartment, and thus results in an increase in BRET signal.
Plasmids—The cDNA clones for human GPR84 receptor, human Gai2, Gp1, and Gy2 were obtained from the cDNA Resource Center (www.cdna.org). GFP10 (F64L, S147P, S202F and H231L variant of Aequorea victoria Green Fluorescent Protein) gBlocks gene fragments (Integrated DNA Technologies, IA) and linker were inserted in frame at the N-terminus of human Gγ2. Rluc8 (A55T, C124A, S130A, K136R, A143M, M185V, M253L, and S287L variant of the Renilla renformis luciferase) gBlocks gene fragment was inserted with linkers in frame in between residues 91 and 92 of Gai2 or at the C-terminus of GPR84. The FYVE domain from human endofin (residues Q739 to K806) attached in frame at the C terminus of a humanized Renilla GFP (rGFP), were synthesized as gBlocks gene fragments.
Bioluminescence Resonance Energy Transfer (BRET) Measurement—HEK293 cells were transfected with GPR84-Rluc8 and rGFP-FYVE for the EEs trafficking biosensor or with GPR84, Gαi2-Rluc8, GFP10-Gγ2, and Gβ1 for the Gαi biosensor. The following day, transiently transfected cells were seeded in 96-well white clear bottom microplates coated with poly-D-lysine and left in culture for 24 hours. Cells were washed once with Tyrode's buffer (140 mmol/L NaCl, 1 mmol/L CaCl2, 2.7 mmol/L KCl, 0.49 mmol/L MgCl2, 0.37 mmol/L NaH2PO4, 5.6 mmol/L glucose, 12 mmol/L NaHCO3, and 25 mmol/L HEPES, pH 7.5) before performing assays in Tyrode's buffer. Test compounds were incubated with cells for 5 (Gαi) or 15 (EEs) minutes at 37° C. before addition of 200 nmol/L of the GPR84 agonist ZQ-16 (2-(Hexylthio)-6-hydroxy-4(3H)-pyrimidinone) for 5 minutes at room temperature (Gαi) or 30 minutes at 37° C. (EEs). The Rluc8 substrate coelenterazine 400A (Prolume, Lakeside, AZ) was added at a final concentration of 5 μmol/L and BRET readings were collected using an Infinite M1000 microplate reader (Tecan, Morrisville, NC). BRET^2 readings between Rluc8 and GFP10 or rGFP were collected by sequential integration of the signals detected in the 370 to 450 nm (Rluc8) and 510 to 540 nm (GFP10, rGFP) windows. The BRET signal was calculated as the ratio of light emitted by acceptor (GFP10, rGFP) over the light emitted by donor (Rluc8). The values were corrected to net BRET by subtracting the background BRET signal obtained in cells transfected with Rluc8 constructs alone. Ligand-promoted net BRET values were calculated by subtracting vehicle-induced net BRET from ligand-induced net BRET.

T1 sequence (Q9NQS5 whole entry): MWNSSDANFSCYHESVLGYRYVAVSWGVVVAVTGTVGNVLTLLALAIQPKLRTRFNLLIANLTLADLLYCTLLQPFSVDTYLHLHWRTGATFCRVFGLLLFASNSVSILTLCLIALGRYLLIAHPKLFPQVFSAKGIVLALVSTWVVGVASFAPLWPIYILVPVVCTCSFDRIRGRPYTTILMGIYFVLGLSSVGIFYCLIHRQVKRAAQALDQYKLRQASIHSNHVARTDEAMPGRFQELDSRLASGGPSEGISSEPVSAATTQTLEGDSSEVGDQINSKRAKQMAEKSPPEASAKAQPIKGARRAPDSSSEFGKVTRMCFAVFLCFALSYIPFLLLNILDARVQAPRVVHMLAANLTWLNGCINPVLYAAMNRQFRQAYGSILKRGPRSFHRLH

In the case of Cc1cc(C#CCn2cc(-c3ccccc3)nn2)ccc1-c1cn(CC2CCCCO2)nn1 (centres unmarked) [Compound I-432, 1-(3-(3-methyl-4-(1-((tetrahydro-2H-pyran-2-yl)methyl)-1H-1,2,3-triazol-4-yl)phenyl)prop-2-ynyl)-4-phenyl-1H-1,2,3-triazole], the inhibition at 10 µM is reported as over 75% and the IC50 is reported as 300 to 1000 nM.

Work on Cc1cc(NC(=O)c2ccccc2)ccc1-c1cn(CC2CCCCO2)nn1 (centres unmarked) [Compound I-483] yielded an inhibition at 10 µM of at most 25%.

In the case of Cc1ccc(N2CC(C)(C)C2)cc1Cc1cn(CC2CCCCO2)nn1 (centres unmarked) [Compound I-443], the inhibition at 10 µM is reported as at most 25%.

Cc1c(C(C)c2cccc(C#CC3CC3)c2)nnn1CC1CCCCO1 (centres unmarked) [Compound I-624] showed an inhibition at 10 µM of at most 25%.

With OCC#Cc1ccc(-c2cn(CC3OCC4(CCC4)O3)nn2)c(CC(F)(F)F)c1 (centres unmarked) [Compound I-808] the inhibition at 2 µM was over 75% and the IC50 was 300 to 1000 nM.

In the case of Cc1cc(N2CC(C)(CO)C2)ccc1-c1cn(CC2CCCCO2)nn1 (centres unmarked) [Compound I-263], the inhibition at 10 µM is reported as over 75%.

In the case of CN(C)c1cc(C#CC2CC2)cnc1-c1cn(CC2CCCCO2)nn1 (centres unmarked) [Compound I-518], the inhibition at 10 µM is reported as over 75% and the IC50 is reported as 1000 to 3000 nM.

With Cc1cc(N2CCN(c3ccccn3)CC2)ccc1-c1cn(CC2CCCCO2)nn1 (centres unmarked) [Compound I-533] the inhibition at 10 µM was at most 25%.

Compound CC1(C)COC(Cn2cc(-c3ccc(N4CC(C)(CO)C4)cc3CC(F)(F)F)nn2)OC1 [Compound I-735] has an inhibition at 2 µM of over 75% and an IC50 of at most 300 nM.

Cc1cc(OCc2ccccc2)ccc1-c1cn(CC2CCCCO2)nn1 (centres unmarked) [Compound I-52] was tested, and the inhibition at 25 µM was at most 25%.

In the case of Cc1cc(N2CC(C)(C)C2)ccc1-c1cn(CC2CCCCO2)nn1 (centres unmarked) [Compound I-864], the inhibition at 10 µM is reported as 25 to 50% and the IC50 is reported as 300 to 1000 nM.

CC1(NCc2ccccn2)CN(c2ccc(-c3cn(CC4CCCCO4)nn3)c(CC(F)(F)F)c2)C1 (centres unmarked) [Compound I-744] showed an inhibition at 10 µM of over 75% and an IC50 of 300 to 1000 nM.

CC1(C)COC(Cn2cc(-c3ncc(C#CCN4CC(C)(CO)C4)cc3OC3CC3)nn2)OC1 [Compound I-799] gave an inhibition at 10 µM of over 75% and an IC50 of at most 300 nM.

Work on Cc1cc(N2CCCC(N(C)C)C2)ccc1-c1cn(CC2CCCCO2)nn1 (centres unmarked) [Compound I-153] yielded an inhibition at 10 µM of at most 25%.

Cc1cc(C#CC2CC2)cnc1-c1cn(CC2CCOCC2)nn1 [Compound I-196] was tested, and the inhibition at 10 µM was at most 25%.

Work on CCc1cc(N2CC(C)(C)C2)ccc1-c1cn(CC2Oc3ccccc3O2)nn1 [Compound I-647] yielded an inhibition at 2 µM of over 75% and an IC50 of 300 to 1000 nM.

With COC(c1cn(CC2CCCCO2)nn1)c1c(C)ccc(C#CC2CC2)c1F (centres unmarked) [Compound I-656] the inhibition at 10 µM was over 75% and the IC50 was 300 to 1000 nM.

Work on Cc1cc(N2CCN(CC3CC4CCN3CC4)CC2)ccc1-c1cn(CC2OCC(C)(C)CO2)nn1 (centres unmarked) [Compound I-661] yielded an inhibition at 10 µM of at most 25%.

COC(C)Cn1cc(-c2ccc(C#CCNc3ccccc3)cc2C)nn1 (centres unmarked) [Compound I-162] was tested, and the inhibition at 10 µM was 25 to 50%.

Cc1cc(N2CC(C)(C(=O)Nc3ccccc3)C2)ccc1-c1cn(CC2CCCCO2)nn1 (centres unmarked) [Compound I-410] was tested, and the inhibition at 2 µM was 25 to 50%.

Work on COC(=O)N1CCC(c2ccc(-c3cn(CC4CCCCO4)nn3)c(C)c2)CC1 (centres unmarked) [Compound I-484] yielded an inhibition at 10 µM of at most 25%.

Work on Cc1cn(CC2CCCCO2)nc1-c1ccc(C#CC2CC2)cc1 (centres unmarked) [Compound I-316] yielded an inhibition at 25 µM of at most 25%.

CC(C)Oc1cc(C#CCN2CC(C)(C)C2)cnc1-c1cn(CC2OCC(C)(C)CO2)nn1 [Compound I-676] gave an inhibition at 2 µM of over 75% and an IC50 of at most 300 nM.

With COCC(=O)N1CCCCC1Cn1cc(-c2ccc(C#CC3CC3)cc2C)nn1 (centres unmarked) [Compound I-192] the inhibition at 10 µM was at most 25%.

For CN(C)c1cc(N2CC(C)(CO)C2)ccc1-c1cn(CC2OCC(C)(C)CO2)nn1 [Compound I-654], the inhibition at 10 µM was over 75% and the IC50 was at most 300 nM.

Cc1cc(C#CC2CC2)ccc1-c1cn(CC2OCC(F)(F)CO2)nn1 [Compound I-670] showed an inhibition at 10 µM of 50 to 75%.

Cc1cc(C#CC2CC2)cnc1-c1cn(Cc2ncccn2)nn1 [Compound I-453] showed an inhibition at 10 µM of at most 25%.

Cc1cc(OCC(F)(F)F)cnc1-c1cn(CC2OCC(C)(C)O2)nn1 (centres unmarked) [Compound I-639] gave an inhibition at 10 µM of at most 25%.

Cc1cc(N2CC3(CCN(C(=O)c4ccccc4)CC3)C2)ccc1-c1cn(CC2CCCCO2)nn1 (centres unmarked) [Compound I-310] gave an inhibition at 10 µM of 50 to 75% and an IC50 of 1000 to 3000 nM.

Compound Cc1c(C#CC2CC2)cccc1-c1nnn(CC2CCCCO2)n1 (centres unmarked) [Compound I-8] has an inhibition at 25 µM of at most 25%.

Cc1cc(N2CC3(CCCN3C)C2)ccc1-c1cn(CC2CCCCO2)nn1 (centres unmarked) [Compound I-148] was tested, and the inhibition at 10 µM was 50 to 75%.

Work on Cc1c(C#CC2CC2)cccc1C(C)c1cn(C[C@H]2CCCCO2)nn1 (some centres unmarked) [Compound I-741] yielded an inhibition at 10 µM of over 75%.

Cc1cc(C#CCN(C)CC2CC2)cnc1-c1cn(CC2CCCCO2)nn1 (centres unmarked) [Compound I-251] gave an inhibition at 10 µM of over 75%.

C(#CC1CC1)c1ccc2c(c1)CCn1nc(OC[C@H]3COCCO3)cc1-2 (stereo in doubt) [Compound I-332, 2-((1,4-dioxan-2-yl)methoxy)-8-(cyclopropylethynyl)-5,6-dihydropyrazolo[5,1-a]isoquinoline] gave an inhibition at 10 µM of at most 25%.

Cc1cc(N2CC(C(C)O)C2)ccc1-c1cn(CC2CCCCO2)nn1 (centres unmarked) [Compound I-508] gave an inhibition at 10 µM of 50 to 75%.

Work on Cc1cc(-c2cn(CC3CCCCO3)nn2)nnc1C#CC1CC1 (centres unmarked) [Compound I-434] yielded an inhibition at 10 µM of at most 25%.

Cc1ccc(C#CC2CC2)nc1-c1cn(Cc2ccccn2)nn1 [Compound I-480] gave an inhibition at 2 µM of at most 25%.

COC(C)(C)Cn1cc(-c2ccc(C#CCNc3ccccc3)cc2C)nn1 [Compound I-163] was tested, and the inhibition at 10 µM was at most 25%.

Work on C(#CC1CC1)c1ccc2c(c1)CCc1cnn(CC3CCCCO3)c1-2 (centres unmarked) [Compound I-329] yielded an inhibition at 10 µM of 25 to 50% and an IC50 of 300 to 1000 nM.

Cc1cc(C#CCNC(C)C)ccc1-c1cn(CC2CCCCO2)nn1 (centres unmarked) [Compound I-131] was tested, and the inhibition at 10 µM was at most 25%.

With Cc1cc(C(=O)Nc2cc[nH]n2)ccc1-c1cn(CC2CCCCO2)nn1 (centres unmarked) [Compound I-559] the inhibition at 10 µM was at most 25%.

Work on Cc1cc(C#CC2CC2)ccc1-c1cn(CC2(C)CCCCO2)nn1 (centres unmarked) [Compound I-554] yielded an inhibition at 2 µM of over 75%.

CC(C)(C)OCCn1cc(-c2ccc(C#CC3CC3)cc2)nn1 [Compound I-97] gave an inhibition at 10 µM of at most 25%.

Work on Cc1cc(C#CC2(O)CCCC2)ccc1-c1cn(CC2CCCCO2)nn1 (centres unmarked) [Compound I-210] yielded an IC50 of 300 to 1000 nM.

For Cc1cc(N2CC(Nc3cnn(C)c3)C2)ccc1-c1cn(CC2CCCCO2)nn1 (centres unmarked) [Compound I-541], the inhibition at 10 µM was 25 to 50%.

With Cc1cc(N2CCN(Cc3ccccn3)CC2=O)ccc1-c1cn(CC2OCC(C)(C)CO2)nn1 [Compound I-751] the inhibition at 10 µM was 25 to 50%.

Compound COC(C)Cn1cc(-c2ccc(C#CC3CC3)cc2C)nn1 (centres unmarked) [Compound I-132] has an inhibition at 10 µM of 25 to 50%.

Cc1cc(C#CC2CC2)ccc1-c1cn(CC(C)Oc2ccccc2)nn1 (centres unmarked) [Compound I-72] showed an inhibition at 25 µM of at most 25%.

Compound COCC#Cc1ccc(-c2nnn(CC3CCCCO3)c2C)cc1 (centres unmarked) [Compound I-244] has an inhibition at 10 µM of 25 to 50%.

Cc1cc(CCCCN2CCCCC2)ccc1-c1cn(CC2CCCCO2)nn1 (centres unmarked) [Compound I-270] gave an inhibition at 10 µM of at most 25%.

Work on COCC#Cc1cnc(-c2cn(CC3CCCCO3)nn2)c(C)c1 (centres unmarked) [Compound I-273] yielded an inhibition at 10 µM of 50 to 75%.

Cc1cc(N2CC(C)(CN3CC(C)(C)C3)C2)ccc1-c1cn(CC2CCCCO2)nn1 (centres unmarked) [Compound I-660] was tested, and the inhibition at 10 µM was at most 25%.
